# Test results published in article PMC4279401 (Oncotarget, 2014).
# “And” between values parts separate entries of the source, which are not always exact repeats. Equal values may be shown once. “Also recorded” adds a separate entry of the source. Read-outs that look alike come from different tables or passages of the source.
# Assays:
# [1] = system: H3K79 methylation; experiment: Western blot of histone methylation in MDA-MB231; type: cell-based, Human; conditions: for effect on H3K79 methylation: in words
# Procedure: (§1) Human cell lines BT549, MDA-MB231, MCF-7, MDA-MB157, HCC70, A549 and NB4 were obtained from the American Type Culture Collection (ATCC) and cultured using ATCC recommended conditions. Primary antibodies against H3K79me2, H3K27me3, H3K4me3, H3K36me2, H4K20me3, H3K9me-pan were purchased from Cell Signaling (Danvers, MA). siRNA experiments were performed by transfecting MDA-MB-231 cells with X-tremeGENE Transfection Reagent (Roche) and 10 nM siRNA (Invitrogen), according to the manufacturer's protocol.
# (§2) 10^6 cells/well were incubated with increasing concentrations of a compound for 5 days and histones extracted with the EpiQuik™ Total Histone Extraction Kit (Epigentek) according to the manufacturer's protocol. Equal amounts of histones (2μg) were separated on SDS-PAGE and transferred to PVDF membranes. The blots were probed with primary antibodies, followed by anti-rabbit IgG (Thermo Scientific) secondary antibodies. For western blot analysis of MDA-MB231 xenograft tumors, tumors were harvested and frozen in liquid nitrogen. Histones were extracted and analyzed by immunoblotting as described above.
# [2] = system: MDA-MB231; experiment: Cell proliferation after DOT1L siRNA; type: cell-based, Human; conditions: MDA-MB231, siRNA treatment, in words
# Procedure: as §1, with “protocol. The sequences for DOT1L siRNA (Invitrogen) were: • siRNA-1: 634-[…]; • siRNA-2: 117-[…]; • siRNA-3: 104-[…]; • siRNA-4: 470-[…]; • siRNA-5: 120-[…]. • siRNA-`mock represents an siRNA that has no homology to any vertebrate transcriptome.” for “protocol.”
# [3] = system: MDA-MB231; experiment: Cell proliferation, MTT assay; type: cell-based; conditions: Homo sapiens
# [4] = system: MCF-7; experiment: Cell proliferation, MTT assay; type: cell-based; conditions: Homo sapiens
# [5] = system: H3K27 methylation; experiment: Western blot of histone methylation in MDA-MB231; type: cell-based; conditions: Homo sapiens, MDA-MB-231, Fig. 4b, read-out: IC50 against H3K27 methylation
# Procedure: as §2
# [6] = system: MDA-MB231, BT549 and MCF-7 breast cancer cells; experiment: Cell proliferation, MTT assay, DOT1L+ breast cancer cells; type: cell-based, Human; conditions: Homo sapiens
# [7] = system: BT549; experiment: Cell proliferation, MTT assay; type: cell-based; conditions: Homo sapiens
# [8] = system: methylation at H3K4, H3K9, H3K27, H3K36 and H4K20; experiment: Western blot of methylation at other histone lysines in MDA-MB231; type: cell-based, Human; conditions: at concentrations of <1 μM, in words
# Procedure: as §2
# [9] = system: MDA-MB231; experiment: Transwell cell migration assay; type: cell-based, Human; conditions: MDA-MB231, Transwell with and without Matrigel, in words
# Procedure: 5 × 10^4 cells/well were incubated with compounds for 14 days. For transwell migration assays, 5× 10^4 cells were plated in the top chamber with the non-coated membrane (24-well insert; pore size, […]; BD Biosciences). For invasion assays, 5× 10^4 cells were plated in the top chamber with Matrigel-coated membrane. The cells on the apical side of each insert were then scraped off after 22 h for both assays. The wells were washed with PBS, fixed with 100% methanol and stained with DAPI. Cells that had migrated to the basal side of the membrane were visualized and counted with a Nikon Eclipse TE2000-U microscope at 10×. Pictures of three random fields were obtained and the number of cells that had migrated quantified using ImageJ analysis software.
# [10] = system: MDA-MB231 cells; experiment: CD44/CD24 flow cytometry; type: cell-based, Human; conditions: MDA-MB231, FACS, in words
# Procedure: (§3) 5 × 10^4 cells/well were incubated with compounds for 14 days. The ALDH activity of cells was determined by using the ALDEFLUOR assay kit (StemCell Technologies) according to the manufacturer's instructions. Combinations of fluorochrome-conjugated monoclonal antibodies against human CD44-FITC and CD24-PE were obtained from BD Biosciences. Primary antibodies or the respective isotype controls (BD Biosciences) were added to the cell suspension, according to the manufacturer's recommendation, and incubated at 4°C for 20 min. Dead cells were eliminated using propidium iodide (Sigma). The labelled cells were analyzed on a FACS Calibur (BD Biosciences/Applied Biosystems).
# [11] = system: MDA-MB231 cells; experiment: Microarray gene set enrichment analysis; type: cell-based, Human; conditions: 1 at 5 μM, 2 at 10 μM, in words
# Procedure: 10^5 cells/well were incubated with compounds for 14 days. Cells were lysed immediately in TRIzol® Reagent, frozen in liquid nitrogen, and shipped to Asuragen, Inc. (Austin, TX) for microarray experiments. RNA was isolated, amplified, and hybridized to Illumina Human HT-12 v4 arrays according to the manufacturer's protocol. Microarray data were log2 transformed and then normalized to have the same median for all the arrays. Moderate t-statistics were used to test if genes were differentially expressed between the groups of interest. Benjamini and Hochberg method was used to correct for multiple comparisons. R and Bioconductor packages were used for all the statistical analyses (http://cran.us.r-project.org/, http://www.bioconductor.org/). Gene set enrichment analysis was performed using GSEA software from Broad Institute (Boston, MA).
# [12] = in vivo; cited from earlier work
# [13] = system: MDA-MB231 cells; experiment: Apoptosis, Annexin V FACS; type: cell-based, Human
# Procedure: (§4) For apoptosis and cell cycle analysis, 10^5 cells/well were incubated with increasing concentrations of a compound for 7 or 10 days. Apoptosis was determined using the FITC Annexin V Apoptosis Detection Kit I (BD Bioscience) according to the manufacturer's protocol. Cells for cell cycle analysis were fixed in cold 70% ethanol at 4°C and stained with Propidium iodide (Sigma-Aldrich) (20 μg/ml) and RNase A (10 μg/ml) for 30min. Cells were analyzed using a FACS Calibur (BD Biosciences/Applied Biosystems) and data were processed using the program Flowjo (version7.6.5).
# [14] = system: A549; experiment: Cell proliferation, MTT assay; type: cell-based, Human; conditions: in words
# [15] = system: MDA-MB231 cells; experiment: Cell cycle analysis, propidium iodide FACS; type: cell-based, Human; conditions: MDA-MB231, in words
# Procedure: as §4
# [16] = system: MDA-MB231 cells; experiment: ALDEFLUOR assay; type: cell-based, Human; conditions: in words
# Procedure: as §3
# [17] = system: MDA-MB231 cells; experiment: Quantitative PCR of EMT genes; type: cell-based, Human; conditions: MDA-MB231, qPCR, dose-dependent, in words
# Procedure: 10^4 cells/well were incubated with compounds for 14 days with media containing compounds replaced every 3-4 days. Total RNA was extracted from cells using RNeasy mini kit (Qiagen). 100-1000 ng of total RNA was reverse transcribed using iScript™ Reverse Transcription Supermix (Bio-Rad) according to the manufacturer's protocol. Quantitative real-time PCR was carried out using the RT^2 SYBR Green ROX™ qPCR Mastermix (Qiagen) according to the manufacturer's instructions. Measurements were performed in triplicate, using GAPDH or human 18S ribosomal RNA as a reference gene. The sequences of primers used are listed in the Supplementary Table. Real-time PCR was performed using the ABI Prism 7300 sequence detection system.
# [18] = system: H3K27 methylation; experiment: Western blot of histone methylation in BT549; type: cell-based, Human
# Procedure: as §2
# [19] = molecular target: EZH2; conditions: read-out: Ki against EZH2; cited from earlier work
# [20] = molecular target: other lysine methyltransferases; conditions: read-out: Ki against other lysine methyltransferases; cited from earlier work
compound,measurement,setting,value
siRNA-3: DOT1L siRNA (Invitrogen): 104-CGCUGCCGGUCUACGAUAAACAUCA (other strand not given here),effect on H3K79 methylation,[1],considerably weaker inhibition
same,effect on cell proliferation,[2],did not significantly affect the growth
"Nc1nccc2c1ncn2C1C=C(CO)C(O)C1O (centres unmarked) [Compound 4, 3-deazaneplanocin A]",EC50,"[3]; MDA-MB-231, 72 h, read-out: Anti-proliferative activity EC50",> 20 µM
same,EC50,"[3]; MDA-MB-231, 360 h, read-out: EC50, 15-day treatment",0.035 µM
same,EC50,"[4]; MCF7, 72 h, read-out: Anti-proliferative activity EC50",> 20 µM
same,EC50,"[4]; MCF7, 360 h, read-out: EC50, 15-day treatment",0.48 µM
same,IC50,"[1]; Homo sapiens, MDA-MB-231, read-out: IC50 of H3K79 methylation inhibition",~0.05 µM
same,IC50,[5],> 6 µM
same,EC50,"[6]; 72 h, read-out: EC50, 3-day treatment",> 20 µM
same,EC50,"[6]; 360 h, read-out: anti-proliferation EC50",0.035 to 0.48 µM
same,EC50,"[7]; BT-549, 72 h, read-out: Anti-proliferative activity EC50",> 20 µM
same,EC50,"[7]; BT-549, 360 h, read-out: EC50, 15-day treatment",0.065 µM
same,"inhibitory activity against methylation at H3K4, H3K9, H3K27, H3K36 and H4K20",[8],no or negligible inhibitory activities; also recorded: negligible effects
siRNA-2: DOT1L siRNA (Invitrogen): 117-CGAUAAACAUCACGAUGCUGCUCAU (other strand not given here),effect on H3K79 methylation,[1],considerably weaker inhibition
same,effect on cell proliferation,[2],did not significantly affect the growth
"CC(C)N(CCCNC(=O)Nc1ccc(C(C)(C)C)cc1)CC1OC(n2cnc3c(N)ncnc32)C(O)C1O (centres unmarked) [Compound 2, SYC-522]",cell migration and invasion,[9],reduced abilities of cell migration and invasion
same,CD44+/CD24− cell population,[10],significantly decreased
same,cell population expressing high levels of CD24,[10],considerably more cells expressed higher levels of CD24; also recorded: increased cell population
same,genes whose expression is low in breast CSCs (GSEA),[11],upregulation
same,pro-proliferation genes in the PAM50 gene set (GSEA),[11],downregulation
same,pharmacokinetics,[12],poor pharmacokinetics with short plasma half-lives
same,apoptosis,"[13]; MDA-MB231, 2 μM, in words",negligible amount of apoptosis
same,apoptotic rate,"[13]; MDA-MB231, 10 μM",7.8% and ~ 8%
same,activity against A549 cells,[14],negligible activity
same,sub-G1 phase cell population,[15],increased sub-G1 phase cell population; also recorded: moderately increased pre-G phase cell population
same,ALDH+ cell population,[16],considerably reduced
same,gene expression of E-cadherin,[17],increase
same,"gene expression of TGF-β, Snail and Zeb",[17],significantly reduce
"Cc1cc(C)c(CNC(=O)c2cc(-c3ccc(CN4CCOCC4)cc3)cc3c2cnn3C2CCCC2)c(=O)[nH]1 [Compound 5, EPZ005687]",EC50,"[3]; MDA-MB-231, 72 h, MDA-MB231, 3-day treatment, read-out: Anti-proliferative activity EC50",11 µM
same,EC50,"[3]; MDA-MB-231, 360 h, MDA-MB231, 15-day treatment, read-out: Anti-proliferative activity EC50",13 µM
same,selectivity of histone methylation inhibition,"[18]; BT549, Western blot, in words",only inhibited H3K27 methylation
same,IC50,"[18]; Homo sapiens, BT-549, 5 days, breast cancer cells, Fig. 4d (BT549), read-out: IC50 of H3K27 methylation inhibition",~0.05 µM
same,Ki,[19],0.024 µM
same,EC50,"[4]; MCF7, 72 h, MCF-7, 3-day treatment, read-out: Anti-proliferative activity EC50",28 µM
same,EC50,"[4]; MCF7, 360 h, MCF-7, 15-day treatment, read-out: Anti-proliferative activity EC50",12 µM
same,EC50,"[6]; three breast cancer cells, regardless of the treatment durations, read-out: anti-proliferation EC50",11 to 35 µM
same,EC50,"[7]; BT-549, 72 h, BT549, 3-day treatment, read-out: Anti-proliferative activity EC50",34 µM
same,EC50,"[7]; BT-549, 360 h, BT549, 15-day treatment, read-out: Anti-proliferative activity EC50",35 µM
"Nc1ncnc2c1ncn2[C@@H]1O[C@H](CSCC[C@H](N)C(=O)O)[C@@H](O)[C@H]1O [SAH, S-adenosyl-homocycteine]",Ki,[19],7.5 µM
same,Ki,[20],> 1 µM
siRNA-1: DOT1L siRNA (Invitrogen): 634-CGCGAGUUCAGGAAGUGGAUGAAAU (other strand not given here),effect on H3K79 methylation,[1],significantly reduced H3K79 methylation
same,effect on cell proliferation,[2],slowed down cell proliferation; also recorded: significantly inhibited cell proliferation
siRNA-4: DOT1L siRNA (Invitrogen): 470-CCCAGAUGAUUGAUGAGAUCAAGAU (other strand not given here),effect on H3K79 methylation,[1],significantly reduced H3K79 methylation
same,effect on cell proliferation,[2],inhibited cell proliferation
